Experimental data reported in article PMC12697290, “Identification of novel PTP1B inhibitor for the treatment of LPS-induced myocardial apoptosis: machine learning based virtual screening and biological evaluation” (Journal of Enzyme Inhibition and Medicinal Chemistry, 2025).

Experiments:
[1] = molecular target: T1, PTP1B (Homo sapiens, UniProt P18031); assay: pNPP hydrolysis, absorbance at […] nm; assay type: biochemical; set-up: gene PTPN1; isolated enzyme; settings: 5 mM pNPP, 50 mM Hepes, 1 mM DTT, pH 7.0, 37 °C; 10 μM compound
T1 sequence (P18031 1-435): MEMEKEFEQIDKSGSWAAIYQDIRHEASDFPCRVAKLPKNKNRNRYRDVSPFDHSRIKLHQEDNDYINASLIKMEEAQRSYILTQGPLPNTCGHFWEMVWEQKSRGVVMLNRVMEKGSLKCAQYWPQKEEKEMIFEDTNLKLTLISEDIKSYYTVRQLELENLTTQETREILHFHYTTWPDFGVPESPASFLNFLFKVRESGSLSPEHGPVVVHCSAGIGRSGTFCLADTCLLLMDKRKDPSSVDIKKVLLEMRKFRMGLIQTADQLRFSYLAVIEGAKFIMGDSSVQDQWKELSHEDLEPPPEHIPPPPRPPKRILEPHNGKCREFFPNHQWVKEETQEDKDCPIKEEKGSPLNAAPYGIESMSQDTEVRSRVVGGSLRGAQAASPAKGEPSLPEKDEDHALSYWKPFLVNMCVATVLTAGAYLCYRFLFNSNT

[2] = molecular target: T2, TCPTP (Homo sapiens, UniProt P17706); assay: cellular thermal shift assay (CETSA), Western blot; assay type: cell-based; set-up: gene PTPN2; endogenous protein in AC16 human cardiomyocytes, detected by Western blot (antibody 11214-1-AP); settings: AC16 cells
T2 sequence (P17706 1-415): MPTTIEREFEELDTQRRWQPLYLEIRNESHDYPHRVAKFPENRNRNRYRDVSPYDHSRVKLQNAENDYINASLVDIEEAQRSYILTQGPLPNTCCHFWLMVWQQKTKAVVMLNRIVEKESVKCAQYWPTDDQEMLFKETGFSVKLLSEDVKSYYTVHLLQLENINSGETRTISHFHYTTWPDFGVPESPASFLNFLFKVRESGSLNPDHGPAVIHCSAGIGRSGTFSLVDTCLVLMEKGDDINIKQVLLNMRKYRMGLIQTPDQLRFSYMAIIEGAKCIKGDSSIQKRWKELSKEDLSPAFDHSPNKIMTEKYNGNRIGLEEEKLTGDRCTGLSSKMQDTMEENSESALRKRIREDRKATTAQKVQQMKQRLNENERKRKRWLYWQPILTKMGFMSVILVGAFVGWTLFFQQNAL

[3] = molecular target: T3, acidic phosphatase (ACP1) (Homo sapiens, UniProt P24666); assay: phosphatase inhibition assay (protocol printed for PTP1B: pNPP, […] nm); assay type: biochemical; settings: conditions not stated separately for ACP1
T3 construct: isolated enzyme
T3 sequence (P24666 2-158): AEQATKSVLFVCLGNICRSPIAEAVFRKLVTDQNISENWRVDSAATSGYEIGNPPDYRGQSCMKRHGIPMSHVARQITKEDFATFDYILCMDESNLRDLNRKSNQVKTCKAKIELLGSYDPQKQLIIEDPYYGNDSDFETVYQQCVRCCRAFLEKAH

[4] = molecular target: T1, PTP1B; assay: cellular thermal shift assay (CETSA), Western blot; assay type: cell-based; set-up: gene PTPN1; endogenous protein in AC16 human cardiomyocytes, detected by Western blot (antibody 11334-1-AP); settings: AC16 cells
[5] = molecular target: T1, PTP1B; assay: pNPP hydrolysis, absorbance at […] nm; assay type: biochemical; set-up: gene PTPN1; isolated enzyme
[6] = molecular target: T2, TCPTP; assay: phosphatase inhibition assay (protocol printed for PTP1B: pNPP, […] nm); assay type: biochemical; set-up: gene PTPN2; isolated enzyme

CO/N=C(\C(=O)N[C@@H]1C(=O)N2C(C(=O)O)=C(CSc3nc(=O)c(O)nn3C)CS[C@H]12)c1csc(N)n1 [PI-1]
inhibitory rate at 20 μM [1]: compounds PI-1, PI-2 and PI-7 displayed a moderate to potent inhibitory activity against PTP1B

N#C/C(=C\c1ccc(OCC(=O)O)cc1)c1nc2ccccc2[nH]1 [PI-2]
inhibitory rate at 20 μM [1]: 95.6% | CETSA stabilisation [2]: PI-2 could effectively enhance the PTP1B and TCPTP stability in vitro | IC50 [3]: > 20 µM | CETSA stabilisation [4]: PI-2 could effectively enhance the PTP1B and TCPTP stability in vitro | IC50 [5]: 4.1 ± 0.3 µM | IC50 [6]: 5.9 ± 2.4 µM

O=C(O)COCC(=O)Nc1cc(SCC(O)CO)cc([N+](=O)[O-])c1 (centres unmarked) [PI-7]
inhibitory rate at 20 μM [1]: compounds PI-1, PI-2 and PI-7 displayed a moderate to potent inhibitory activity against PTP1B
